{"source": "paper PMC8800111", "about": "(The Journal of Biological Chemistry, 2021)", "assay_type_in_all_cases": "cell-based", "key": {"[1]": {"target": "proteins of U3A human fibrosarcoma cells (4462 proteins detected) (Homo sapiens, UniProt Q9ULU4)", "settings": "protein ZMYND8; U3A cells"}, "[2]": {"target": "proteins of U3A human fibrosarcoma cells (4462 proteins detected) (Homo sapiens, UniProt Q9UKV5)", "settings": "protein AMFR; U3A cells"}, "[3]": {"target": "proteins of U3A human fibrosarcoma cells (4462 proteins detected) (Homo sapiens, UniProt Q9NXR1)", "settings": "protein NDE1, U3A cells"}, "[4]": {"target": "proteins of U3A human fibrosarcoma cells (4462 proteins detected) (Homo sapiens, UniProt Q9BUJ2)", "settings": "protein HNRNPUL1, U3A cells"}, "[5]": {"target": "proteins of U3A human fibrosarcoma cells (4462 proteins detected) (Homo sapiens, UniProt P26583)", "sequence (P26583 whole entry)": "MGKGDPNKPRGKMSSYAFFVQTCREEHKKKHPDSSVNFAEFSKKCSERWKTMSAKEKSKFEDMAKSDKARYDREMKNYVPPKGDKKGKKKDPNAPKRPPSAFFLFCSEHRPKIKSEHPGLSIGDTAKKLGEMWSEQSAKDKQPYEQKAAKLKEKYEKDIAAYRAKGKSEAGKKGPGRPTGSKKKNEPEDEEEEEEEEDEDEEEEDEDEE", "settings": "protein HMGB2; U3A, 10 μM, 2 h"}, "[6]": {"target": "proteins of U3A human fibrosarcoma cells (4462 proteins detected) (Homo sapiens, UniProt Q9P000)", "settings": "protein COMMD9; U3A cells"}, "[7]": {"target": "proteins of U3A human fibrosarcoma cells (4462 proteins detected) (Homo sapiens, UniProt Q9BVW5)", "settings": "protein TIPIN, U3A cells"}, "[8]": {"target": "proteins of U3A human fibrosarcoma cells (4462 proteins detected) (Homo sapiens, UniProt Q9HAS0)", "settings": "protein C17orf75; U3A cells"}, "[9]": {"target": "proteins of U3A human fibrosarcoma cells (4462 proteins detected) (Homo sapiens, UniProt P62906)", "settings": "protein RPL10A; U3A cells"}, "[10]": {"target": "proteins of U3A human fibrosarcoma cells (4462 proteins detected) (Homo sapiens, UniProt Q9BVS5)", "settings": "protein TRMT61B; soluble abundance after heat, U3A cells"}, "[11]": {"target": "proteins of U3A human fibrosarcoma cells (4462 proteins detected) (Homo sapiens, UniProt Q99470)", "sequence (Q99470 19-211)": "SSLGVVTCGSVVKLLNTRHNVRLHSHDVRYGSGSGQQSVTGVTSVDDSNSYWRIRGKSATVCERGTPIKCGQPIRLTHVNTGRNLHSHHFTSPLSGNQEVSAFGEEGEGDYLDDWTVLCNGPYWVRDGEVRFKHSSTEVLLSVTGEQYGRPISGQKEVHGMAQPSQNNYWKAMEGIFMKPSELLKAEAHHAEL", "settings": "protein SDF2, U3A cells"}, "[12]": {"target": "proteins of U3A human fibrosarcoma cells (4462 proteins detected) (Homo sapiens, UniProt P29992)", "settings": "protein GNA11; U3A cells"}, "[13]": {"target": "proteins of U3A human fibrosarcoma cells (4462 proteins detected) (Homo sapiens, UniProt Q8NCA5)", "settings": "protein FAM98A; U3A cells"}, "[14]": {"target": "proteins of U3A human fibrosarcoma cells (4462 proteins detected) (Homo sapiens, UniProt Q9HD33)", "settings": "protein MRPL47; U3A cells"}, "[15]": {"target": "proteins of U3A human fibrosarcoma cells (4462 proteins detected) (Homo sapiens, UniProt Q96Q89)", "sequence (Q96Q89 whole entry)": "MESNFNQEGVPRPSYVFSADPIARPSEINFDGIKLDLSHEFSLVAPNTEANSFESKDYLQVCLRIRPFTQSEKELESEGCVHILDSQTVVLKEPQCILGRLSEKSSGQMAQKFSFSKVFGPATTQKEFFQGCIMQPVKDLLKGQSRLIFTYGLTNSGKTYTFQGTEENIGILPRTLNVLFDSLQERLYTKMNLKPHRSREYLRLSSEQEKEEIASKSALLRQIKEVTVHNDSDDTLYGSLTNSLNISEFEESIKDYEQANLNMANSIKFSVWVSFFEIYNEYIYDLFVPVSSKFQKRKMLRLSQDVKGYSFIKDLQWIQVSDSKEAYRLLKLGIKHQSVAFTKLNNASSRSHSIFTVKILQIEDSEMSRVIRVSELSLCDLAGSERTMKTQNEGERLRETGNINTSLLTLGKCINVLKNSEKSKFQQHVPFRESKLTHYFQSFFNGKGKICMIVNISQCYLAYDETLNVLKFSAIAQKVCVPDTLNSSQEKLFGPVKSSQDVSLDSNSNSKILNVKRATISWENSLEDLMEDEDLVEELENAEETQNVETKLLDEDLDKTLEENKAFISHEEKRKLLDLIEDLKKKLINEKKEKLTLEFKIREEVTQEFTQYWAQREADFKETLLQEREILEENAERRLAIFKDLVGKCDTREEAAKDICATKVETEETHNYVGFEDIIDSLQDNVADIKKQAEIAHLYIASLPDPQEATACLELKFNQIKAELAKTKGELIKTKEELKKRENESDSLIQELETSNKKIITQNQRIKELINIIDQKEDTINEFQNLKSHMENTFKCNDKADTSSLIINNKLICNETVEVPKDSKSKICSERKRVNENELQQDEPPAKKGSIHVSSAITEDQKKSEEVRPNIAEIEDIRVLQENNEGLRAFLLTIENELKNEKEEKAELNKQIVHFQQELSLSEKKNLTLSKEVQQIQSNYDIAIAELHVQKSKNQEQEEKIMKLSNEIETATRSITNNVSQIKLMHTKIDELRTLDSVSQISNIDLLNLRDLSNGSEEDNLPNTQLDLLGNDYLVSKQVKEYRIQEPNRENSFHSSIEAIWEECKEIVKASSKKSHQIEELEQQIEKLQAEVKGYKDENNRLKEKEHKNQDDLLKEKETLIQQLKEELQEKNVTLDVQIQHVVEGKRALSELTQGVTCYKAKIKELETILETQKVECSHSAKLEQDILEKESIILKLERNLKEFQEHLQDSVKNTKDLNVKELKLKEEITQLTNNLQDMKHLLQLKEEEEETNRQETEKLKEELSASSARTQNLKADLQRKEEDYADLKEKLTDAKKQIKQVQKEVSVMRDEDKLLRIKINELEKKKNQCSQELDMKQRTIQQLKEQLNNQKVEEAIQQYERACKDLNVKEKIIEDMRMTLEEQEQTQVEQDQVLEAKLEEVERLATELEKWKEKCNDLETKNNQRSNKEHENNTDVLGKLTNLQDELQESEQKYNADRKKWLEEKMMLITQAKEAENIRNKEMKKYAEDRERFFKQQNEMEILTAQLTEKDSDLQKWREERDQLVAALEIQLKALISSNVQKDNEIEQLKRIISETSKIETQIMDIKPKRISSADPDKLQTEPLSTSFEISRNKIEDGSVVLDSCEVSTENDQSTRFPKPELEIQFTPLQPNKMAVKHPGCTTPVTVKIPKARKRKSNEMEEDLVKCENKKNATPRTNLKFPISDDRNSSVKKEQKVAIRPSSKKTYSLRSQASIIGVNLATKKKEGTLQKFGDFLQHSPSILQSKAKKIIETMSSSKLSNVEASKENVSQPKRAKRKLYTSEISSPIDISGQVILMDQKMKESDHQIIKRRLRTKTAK", "settings": "protein KIF20B; U3A cells"}, "[16]": {"target": "proteins of U3A human fibrosarcoma cells (4462 proteins detected) (Homo sapiens, UniProt Q09161)", "sequence (Q09161 whole entry)": "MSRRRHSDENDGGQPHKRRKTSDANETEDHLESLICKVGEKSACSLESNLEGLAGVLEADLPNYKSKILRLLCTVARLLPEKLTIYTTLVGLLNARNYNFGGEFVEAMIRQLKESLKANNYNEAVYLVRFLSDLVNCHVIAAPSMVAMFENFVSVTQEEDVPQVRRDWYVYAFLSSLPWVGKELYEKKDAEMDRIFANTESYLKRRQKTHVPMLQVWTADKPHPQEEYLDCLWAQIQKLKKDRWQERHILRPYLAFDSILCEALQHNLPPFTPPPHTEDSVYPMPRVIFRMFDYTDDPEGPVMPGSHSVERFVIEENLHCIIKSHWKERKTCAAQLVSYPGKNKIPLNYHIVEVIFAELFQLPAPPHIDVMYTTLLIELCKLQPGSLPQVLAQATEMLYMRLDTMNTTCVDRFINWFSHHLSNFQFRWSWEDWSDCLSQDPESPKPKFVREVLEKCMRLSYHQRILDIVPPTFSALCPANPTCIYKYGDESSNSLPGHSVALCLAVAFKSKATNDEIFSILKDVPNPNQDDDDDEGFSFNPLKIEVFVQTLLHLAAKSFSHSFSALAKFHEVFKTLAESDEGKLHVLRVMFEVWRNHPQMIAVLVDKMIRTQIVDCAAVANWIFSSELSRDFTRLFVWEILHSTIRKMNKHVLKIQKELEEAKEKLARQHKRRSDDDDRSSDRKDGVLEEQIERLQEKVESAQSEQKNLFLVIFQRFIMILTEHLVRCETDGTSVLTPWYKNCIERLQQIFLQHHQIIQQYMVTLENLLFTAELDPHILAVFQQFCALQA", "settings": "protein NCBP1; soluble abundance after heat, U3A cells"}, "[17]": {"target": "proteins of U3A human fibrosarcoma cells (4462 proteins detected) (Homo sapiens, UniProt P07910)", "settings": "protein HNRNPC; U3A, 10 μM, 2 h"}, "[18]": {"target": "proteins of U3A human fibrosarcoma cells (4462 proteins detected) (Homo sapiens, UniProt O76021)", "settings": "protein RSL1D1; soluble abundance after heat, U3A cells"}, "[19]": {"target": "proteins of U3A human fibrosarcoma cells (4462 proteins detected) (Homo sapiens, UniProt O60573)", "sequence (O60573 whole entry)": "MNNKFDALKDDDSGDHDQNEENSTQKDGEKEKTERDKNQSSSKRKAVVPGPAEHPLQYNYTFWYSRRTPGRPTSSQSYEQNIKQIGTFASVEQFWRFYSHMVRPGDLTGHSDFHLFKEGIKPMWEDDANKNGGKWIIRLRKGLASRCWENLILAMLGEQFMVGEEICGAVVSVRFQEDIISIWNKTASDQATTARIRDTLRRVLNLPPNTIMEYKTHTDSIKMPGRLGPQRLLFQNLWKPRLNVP", "settings": "protein EIF4E2; soluble abundance after heat, U3A cells"}, "[20]": {"target": "proteins of U3A human fibrosarcoma cells (4462 proteins detected) (Homo sapiens, UniProt P22413)", "settings": "protein ENPP1; U3A cells"}, "[21]": {"target": "proteins of U3A human fibrosarcoma cells (4462 proteins detected) (Homo sapiens, UniProt Q9NVR0)", "sequence (Q9NVR0 16-708)": "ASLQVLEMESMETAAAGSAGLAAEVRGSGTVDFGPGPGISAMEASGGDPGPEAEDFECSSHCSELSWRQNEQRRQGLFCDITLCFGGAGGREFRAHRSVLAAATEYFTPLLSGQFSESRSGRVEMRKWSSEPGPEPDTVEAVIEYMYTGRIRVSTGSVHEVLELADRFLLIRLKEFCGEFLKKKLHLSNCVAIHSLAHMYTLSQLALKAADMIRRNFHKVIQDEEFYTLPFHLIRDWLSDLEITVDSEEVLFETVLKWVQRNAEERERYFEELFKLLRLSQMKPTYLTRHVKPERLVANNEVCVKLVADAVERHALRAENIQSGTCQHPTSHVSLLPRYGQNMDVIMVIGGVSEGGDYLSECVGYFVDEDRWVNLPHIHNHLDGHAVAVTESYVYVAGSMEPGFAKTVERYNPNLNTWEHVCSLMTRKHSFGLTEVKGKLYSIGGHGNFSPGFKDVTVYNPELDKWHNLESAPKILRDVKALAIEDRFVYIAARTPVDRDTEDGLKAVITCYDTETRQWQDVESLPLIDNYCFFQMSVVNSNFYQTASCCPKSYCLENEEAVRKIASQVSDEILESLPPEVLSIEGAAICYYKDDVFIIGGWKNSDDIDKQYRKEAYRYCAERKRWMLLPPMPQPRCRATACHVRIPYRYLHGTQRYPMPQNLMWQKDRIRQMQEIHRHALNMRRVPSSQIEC", "settings": "protein KLHL11; U3A cells"}, "[22]": {"target": "proteins of U3A human fibrosarcoma cells (4462 proteins detected) (Homo sapiens, UniProt Q9HCD5)", "sequence (Q9HCD5 whole entry)": "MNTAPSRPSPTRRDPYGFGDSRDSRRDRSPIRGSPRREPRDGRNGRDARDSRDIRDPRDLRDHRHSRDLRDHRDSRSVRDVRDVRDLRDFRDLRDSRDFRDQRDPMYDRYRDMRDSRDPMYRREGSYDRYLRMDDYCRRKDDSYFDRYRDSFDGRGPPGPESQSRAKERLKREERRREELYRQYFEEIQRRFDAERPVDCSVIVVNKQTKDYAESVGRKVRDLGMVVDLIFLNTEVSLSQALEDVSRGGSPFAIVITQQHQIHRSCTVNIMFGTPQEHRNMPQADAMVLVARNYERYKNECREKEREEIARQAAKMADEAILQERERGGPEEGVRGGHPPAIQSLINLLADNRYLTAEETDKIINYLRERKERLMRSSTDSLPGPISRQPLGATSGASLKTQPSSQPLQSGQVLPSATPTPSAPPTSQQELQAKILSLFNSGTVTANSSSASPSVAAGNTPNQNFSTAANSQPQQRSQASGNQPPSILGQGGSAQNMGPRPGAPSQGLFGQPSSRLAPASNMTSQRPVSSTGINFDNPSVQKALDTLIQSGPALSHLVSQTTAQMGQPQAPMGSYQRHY", "settings": "protein NCOA5; U3A cells"}, "[23]": {"target": "proteins of U3A human fibrosarcoma cells (4462 proteins detected) (Homo sapiens, UniProt O14972)", "settings": "protein DSCR3; U3A, 10 μM, 2 h"}, "[24]": {"target": "proteins of U3A human fibrosarcoma cells (4462 proteins detected) (Homo sapiens, UniProt Q8WUA7)", "sequence (Q8WUA7 whole entry)": "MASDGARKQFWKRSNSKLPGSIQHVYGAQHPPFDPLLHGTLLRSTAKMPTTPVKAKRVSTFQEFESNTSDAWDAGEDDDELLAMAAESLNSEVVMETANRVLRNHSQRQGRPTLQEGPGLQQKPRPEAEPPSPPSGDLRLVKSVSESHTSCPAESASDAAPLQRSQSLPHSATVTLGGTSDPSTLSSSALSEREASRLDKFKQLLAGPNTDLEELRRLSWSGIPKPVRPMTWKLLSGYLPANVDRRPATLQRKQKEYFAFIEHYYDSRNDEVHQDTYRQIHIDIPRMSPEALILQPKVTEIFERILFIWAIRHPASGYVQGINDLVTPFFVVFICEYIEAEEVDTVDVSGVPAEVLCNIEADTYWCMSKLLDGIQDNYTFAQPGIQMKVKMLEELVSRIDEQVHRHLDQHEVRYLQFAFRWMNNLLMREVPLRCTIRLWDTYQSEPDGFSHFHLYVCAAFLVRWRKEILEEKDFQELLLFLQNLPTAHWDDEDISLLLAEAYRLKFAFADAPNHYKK", "settings": "protein TBC1D22A; soluble abundance after heat, U3A cells"}, "[25]": {"target": "proteins of U3A human fibrosarcoma cells (4462 proteins detected) (Homo sapiens, UniProt Q96GM5)", "settings": "protein SMARCD1; U3A cells"}, "[26]": {"target": "proteins of U3A human fibrosarcoma cells (4462 proteins detected) (Homo sapiens, UniProt P62487)", "settings": "protein POLR2G; U3A cells"}, "[27]": {"target": "proteins of U3A human fibrosarcoma cells (4462 proteins detected) (Homo sapiens, UniProt Q9UH65)", "settings": "protein SWAP70; soluble abundance after heat, U3A cells"}, "[28]": {"target": "proteins of U3A human fibrosarcoma cells (4462 proteins detected) (Homo sapiens, UniProt Q8IUD2)", "settings": "protein ERC1, U3A cells"}, "[29]": {"target": "proteins of U3A human fibrosarcoma cells (4462 proteins detected) (Homo sapiens, UniProt Q9NU23)", "settings": "protein LYRM2; U3A, 10 μM, 2 h"}, "[30]": {"target": "proteins of U3A human fibrosarcoma cells (4462 proteins detected) (Homo sapiens, UniProt P78559)", "settings": "protein MAP1A, U3A cells"}}, "data": [{"compound": "CCc1nc(N)nc(N)c1-c1ccc(Cl)cc1", "note": "[pyrimethamine]", "values": [{"measurement": "Log2 (PYR/DMSO)", "setting": "[1]", "result": 0.16}, {"measurement": "Log2 (PYR/DMSO)", "setting": "[2]", "result": 0.16}, {"measurement": "Log2 (PYR/DMSO)", "setting": "[3]", "result": -0.04}, {"measurement": "Log2 (PYR/DMSO)", "setting": "[4]", "result": -0.04}, {"measurement": "Log2 (PYR/DMSO), HMGB2", "setting": "[5]", "result": -0.14}, {"measurement": "Log2 (PYR/DMSO)", "setting": "[6]", "result": 0.16}, {"measurement": "Log2 (PYR/DMSO)", "setting": "[7]", "result": -0.03}, {"measurement": "Log2 (PYR/DMSO)", "setting": "[8]", "result": 0.18}, {"measurement": "Log2 (PYR/DMSO)", "setting": "[9]", "result": 0.17}, {"measurement": "Log2 (PYR/DMSO)", "setting": "[10]", "result": 0.13}, {"measurement": "Log2 (PYR/DMSO)", "setting": "[11]", "result": -0.04}, {"measurement": "Log2 (PYR/DMSO)", "setting": "[12]", "result": 0.16}, {"measurement": "Log2 (PYR/DMSO)", "setting": "[13]", "result": 0.24}, {"measurement": "Log2 (PYR/DMSO)", "setting": "[14]", "result": 0.17}, {"measurement": "Log2 (PYR/DMSO)", "setting": "[15]", "result": 0.23}, {"measurement": "Log2 (PYR/DMSO)", "setting": "[16]", "result": 0.14}, {"measurement": "Log2 (PYR/DMSO), HNRNPC", "setting": "[17]", "result": 0.27}, {"measurement": "Log2 (PYR/DMSO)", "setting": "[18]", "result": 0.14}, {"measurement": "Log2 (PYR/DMSO)", "setting": "[19]", "result": 0.15}, {"measurement": "Log2 (PYR/DMSO)", "setting": "[20]", "result": 0.22}, {"measurement": "Log2 (PYR/DMSO)", "setting": "[21]", "result": 0.18}, {"measurement": "Log2 (PYR/DMSO)", "setting": "[22]", "result": 0.17}, {"measurement": "Log2 (PYR/DMSO), DSCR3", "setting": "[23]", "result": -0.16}, {"measurement": "Log2 (PYR/DMSO)", "setting": "[24]", "result": 0.15}, {"measurement": "Log2 (PYR/DMSO)", "setting": "[25]", "result": 0.17}, {"measurement": "Log2 (PYR/DMSO)", "setting": "[26]", "result": 0.18}, {"measurement": "Log2 (PYR/DMSO)", "setting": "[27]", "result": 0.14}, {"measurement": "Log2 (PYR/DMSO)", "setting": "[28]", "result": -0.04}, {"measurement": "Log2 (PYR/DMSO), LYRM2", "setting": "[29]", "result": 0.27}, {"measurement": "Log2 (PYR/DMSO)", "setting": "[30]", "result": -0.04}]}]}
